The values that follow come from patent publication US11229636B2, “Substituted tetrahydroquinolinone compounds as ROR gamma modulators” (Aurigene Discovery Technologies Limited, priority 2015, dated 2022).

The test deals with ROR gamma ligand binding domain (Homo sapiens (Human), UniProt P51449). The test is described as follows: ROR gamma luciferase reporter assay (GAL4-ROR gamma LBD, HEK293 cells). Type of test: cell-based. The settings on record: 48 hours treatment, read-out: RORγ luciferase Reporter assay: IC50 (nM) (in range). On the procedure: The Ligand Binding Domain (LBD) of ROR gamma was cloned into pFN26A (BIND) hRluc-neo Flexi vector (Promega) which expresses a fusion protein comprised of a DNA binding domain of the yeast GAL4 gene, a linker segment and ROR gamma ligand binding domain. For the reporter assay 0.02×10^6 HEK293 cells were seeded per well in a 96 well plate in complete media and incubated overnight in an incubator with 5% CO2 at 37° C. before transfection. Cells were then co-transfected with pFN26A hRluc-neo Flexi vector containing the LBD of ROR gamma and pGL4.35 [luc2P/9XGAL4 UAS/Hygro] Vector (Promega) in low serum media. Post transfection and recovery, cells were treated with the test compounds for 48 hours. The assay was terminated using the Bright-Glo Luciferase assay system from Promega and the Luminescence was measured using a luminescence reader. The luminescence values were used to calculate the potency of the compounds.
ROR gamma ligand binding domain, sequence (P51449 269-508): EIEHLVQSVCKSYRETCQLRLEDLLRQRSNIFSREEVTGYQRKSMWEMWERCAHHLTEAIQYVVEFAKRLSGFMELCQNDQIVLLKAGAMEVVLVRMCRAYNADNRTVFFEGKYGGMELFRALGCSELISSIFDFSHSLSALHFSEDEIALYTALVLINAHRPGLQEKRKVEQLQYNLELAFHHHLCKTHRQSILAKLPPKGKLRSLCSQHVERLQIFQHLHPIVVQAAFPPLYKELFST
For orientation: IC50 means the concentration needed to halve the response being measured. With `CCS(=O)(=O)c1ccc(CC(=O)Nc2cc(C)c3c(n2)CCC(C)(c2cc(OC)cnn2)C3=O)cc1` (centres unmarked) [Compound 73, 2-(4-(ethylsulfonyl)phenyl)-N-(6-(5-methoxypyridazin-3-yl)-4,6-dimethyl-5-oxo-5,6,7,8-tetrahydroquinolin-2-yl)acetamide], the IC50 was more than 500 nM.
The same measure for `CCS(=O)(=O)c1ccc(CC(=O)Nc2cc(C)c3c(n2)CCC(C)(c2cc(C4CC4)c(OC)nn2)C3=O)cc1` (centres unmarked) [Compound 76, N-(6-(5-cyclopropyl-6-methoxypyridazin-3-yl)-4,6-dimethyl-5-oxo-5,6,7,8-tetrahydroquinolin-2-yl)-2-(4-(ethylsulfonyl)phenyl)acetamide]: 100 to 500 nM; for `CCS(=O)(=O)c1ccc(CC(=O)Nc2cc(C)c3c(n2)CCC(C)(c2ccc(C(F)(F)F)nn2)C3=O)cc1` (centres unmarked) [Compound 53, N-(4,6-dimethyl-5-oxo-6-(6-(trifluoromethyl)pyridazin-3-yl)-5,6,7,8-tetrahydroquinolin-2-yl)-2-(4-(ethylsulfonyl)phenyl)acetamide]: more than 500 nM; for `CCS(=O)(=O)c1ccc(CC(=O)Nc2ccc3c(n2)CCC(C)(c2nccn4c(C)cnc24)C3=O)cc1` (single isomer, unassigned) [compound 113, 2-(4-(ethylsulfonyl)phenyl)-N-(6-methyl-6-(3-methylimidazo[1,2-a]pyrazin-8-yl)-5-oxo-5,6,7,8-tetrahydroquinolin-2-yl)acetamide]: less than 100 nM.
On to `CCS(=O)(=O)c1ccc(CC(=O)Nc2ccc3c(n2)CCC(C)(c2nc(C)cn4ccnc24)C3=O)cc1` (single isomer, unassigned) [compound 117, 2-(4-(ethylsulfonyl)phenyl)-N-(6-methyl-6-(6-methylimidazo[1,2-a]pyrazin-8-yl)-5-oxo-5,6,7,8-tetrahydroquinolin-2-yl)acetamide], for which the IC50 was more than 500 nM.
On to `CCS(=O)(=O)c1ccc(CC(=O)Nc2cc(C)c3c(n2)CCC(C)(c2ccc4nc(C)cn4n2)C3=O)cc1` (centres unmarked) [Compound 75, N-(4,6-dimethyl-6-(2-methylimidazo[1,2-b]pyridazin-6-yl)-5-oxo-5,6,7,8-tetrahydroquinolin-2-yl)-2-(4-(ethylsulfonyl)phenyl)acetamide], for which the concentration for half-maximal inhibition (IC50) lay within 100 to 500 nM.
`CCS(=O)(=O)c1ccc(CC(=O)Nc2ccc3c(n2)CCC(C)(c2nccn4c(F)cnc24)C3=O)cc1` (centres unmarked) [Compound 97, 2-(4-(ethylsulfonyl)phenyl)-N-(6-(3-fluoroimidazo[1,2-a]pyrazin-8-yl)-6-methyl-5-oxo-5,6,7,8-tetrahydroquinolin-2-yl)acetamide]: the IC50 is more than 500 nM.
As to `CCS(=O)(=O)c1ccc(CNC(=O)c2cc3c(cn2)C(=O)C(C)(c2cc(C)nc(C)n2)CC3)cc1` (centres unmarked) [Compound-134, 7-(2,6-dimethylpyrimidin-4-yl)-N-(4-(ethylsulfonyl)benzyl)-7-methyl-8-oxo-5,6,7,8-tetrahydroisoquinoline-3-carboxamide], the IC50 was in the range of 100 to 500 nM.
On to `CCS(=O)(=O)c1ccc(CC(=O)Nc2cc(C)c3c(n2)CCC(C)(c2nnc(OC)cc2C)C3=O)cc1` (centres unmarked) [Compound 95, 2-(4-(ethylsulfonyl)phenyl)-N-(6-(6-methoxy-4-methylpyridazin-3-yl)-4,6-dimethyl-5-oxo-5,6,7,8-tetrahydroquinolin-2-yl)acetamide], for which the IC50 is more than 500 nM.
For `CCS(=O)(=O)c1ccc(CC(=O)Nc2ccc3c(n2)CCC(C)(c2ncc(C)n4ccnc24)C3=O)cc1` (centres unmarked) [Compound 68, 2-(4-(ethylsulfonyl)phenyl)-N-(6-methyl-6-(5-methylimidazo[1,2-a]pyrazin-8-yl)-5-oxo-5,6,7,8-tetrahydroquinolin-2-yl)acetamide], the 50% inhibitory concentration (IC50) is 100 to 500 nM.
With `CCS(=O)(=O)c1ccc(CC(=O)Nc2ccc3c(n2)CCC(C)(c2ccc(OC(C)C)nn2)C3=O)cc1` (centres unmarked) [Compound 57, 2-(4-(ethylsulfonyl)phenyl)-N-(6-(6-isopropoxypyridazin-3-yl)-6-methyl-5-oxo-5,6,7,8-tetrahydroquinolin-2-yl)acetamide], the IC50 is more than 500 nM.
In the case of `CCS(=O)(=O)c1ccc(CC(=O)Nc2ccc3c(n2)CCC(C)(c2ccc(Cl)nn2)C3=O)cc1` (centres unmarked) [Compound 93, N-(6-(6-chloropyridazin-3-yl)-6-methyl-5-oxo-5,6,7,8-tetrahydroquinolin-2-yl)-2-(4-(ethylsulfonyl)phenyl)acetamide], the IC50 was more than 500 nM.
For `CCS(=O)(=O)c1ccc(CC(=O)Nc2ccc3c(n2)CC(C)C(C)(c2cc(C)nc(C)n2)C3=O)cc1` (centres unmarked) [Compound 81, N-(6-(2,6-dimethylpyrimidin-4-yl)-6,7-dimethyl-5-oxo-5,6,7,8-tetrahydroquinolin-2-yl)-2-(4-(ethylsulfonyl)phenyl)acetamide], the IC50 was less than 100 nM.
`CCS(=O)(=O)c1ccc(CC(=O)Nc2ccc3c(n2)CC(C)C(c2cc(C)nc(C)n2)C3=O)cc1` (centres unmarked) [Compound 82, N-(6-(2,6-dimethylpyrimidin-4-yl)-7-methyl-5-oxo-5,6,7,8-tetrahydroquinolin-2-yl)-2-(4-(ethylsulfonyl)phenyl)acetamide]: the IC50 is more than 500 nM.
For `CCS(=O)(=O)c1ccc(CC(=O)Nc2ccc3c(n2)CCC(C)(c2nccn4cc(C(F)(F)F)nc24)C3=O)cc1` (centres unmarked) [Compound 72, 2-(4-(ethylsulfonyl)phenyl)-N-(6-methyl-5-oxo-6-(2-(trifluoromethyl)-imidazo[1,2-a]pyrazin-8-yl)-5,6,7,8-tetrahydroquinolin-2-yl)acetamide], the IC50 is less than 100 nM.
Turning to `CCS(=O)(=O)c1ccc(CC(=O)Nc2cc(C)c3c(n2)CCC(C)(c2ccc(OC)[n+]([O-])n2)C3=O)cc1` (centres unmarked) [Compound 94, 3-(2-(2-(4-(ethylsulfonyl)phenyl)acetamido)-4,6-dimethyl-5-oxo-5,6,7,8-tetrahydroquinolin-6-yl)-6-methoxypyridazine 1-oxide], the IC50 was more than 500 nM.
Turning to `CCS(=O)(=O)c1ccc(CC(=O)Nc2cc(C)c3c(n2)CCC(C)(c2ccc4nccn4n2)C3=O)cc1` (centres unmarked) [Compound 77, 2-(4-(ethylsulfonyl)phenyl)-N-(6-(imidazo[1,2-b]pyridazin-6-yl)-4,6-dimethyl-5-oxo-5,6,7,8-tetrahydroquinolin-2-yl)acetamide], the IC50 fell in the range of 100 to 500 nM.
Take `CCS(=O)(=O)c1ccc(CC(=O)Nc2ccc3c(n2)CCC(C)(c2cc(C)nc(OC)n2)C3=O)cc1` (centres unmarked) [Compound 64, 2-(4-(ethylsulfonyl)phenyl)-N-(6-(2-methoxy-6-methylpyrimidin-4-yl)-6-methyl-5-oxo-5,6,7,8-tetrahydroquinolin-2-yl)acetamide]: the IC50 was less than 100 nM.
For the compound `CCS(=O)(=O)c1ccc(CC(=O)Nc2ccc3c(n2)CCC(C)(c2nc(C)cn4ccnc24)C3=O)cc1` (single isomer, unassigned) [compound 118, 2-(4-(ethylsulfonyl)phenyl)-N-(6-methyl-6-(6-methylimidazo[1,2-a]pyrazin-8-yl)-5-oxo-5,6,7,8-tetrahydroquinolin-2-yl)acetamide], the IC50 was less than 100 nM.
Take `CCS(=O)(=O)c1ccc(CNC(=O)c2ccc3c(n2)CCC(C)(c2cc(C)nc(C)n2)C3=O)cc1` (single isomer, unassigned) [compound 125, 6-(2,6-dimethylpyrimidin-4-yl)-N-(4-(ethylsulfonyl)benzyl)-6-methyl-5-oxo-5,6,7,8-tetrahydroquinoline-2-carboxamide]: the concentration for half-maximal inhibition (IC50) is less than 100 nM.
As for `CCS(=O)(=O)c1ccc(CC(=O)Nc2cc(C)c3c(n2)CCC(C)(c2ccc(=O)n(C)n2)C3=O)cc1` (centres unmarked) [Compound 70, N-(4,6-dimethyl-6-(1-methyl-6-oxo-1,6-dihydropyridazin-3-yl)-5-oxo-5,6,7,8-tetrahydroquinolin-2-yl)-2-(4-(ethylsulfonyl)phenyl)acetamide], the IC50 was more than 500 nM.
Take `CCS(=O)(=O)c1ccc(CC(=O)Nc2ccc3c(n2)CCC(C)(c2cc(OC)nc(C)n2)C3=O)cc1` (single isomer, unassigned) [compound 115, 2-(4-(ethylsulfonyl)phenyl)-N-(6-(6-methoxy-2-methylpyrimidin-4-yl)-6-methyl-5-oxo-5,6,7,8-tetrahydroquinolin-2-yl)acetamide]: the IC50 was less than 100 nM.
For `CCS(=O)(=O)c1ccc(CC(=O)Nc2ccc3c(n2)CCC(C)(c2nc(C)cn4cc(C)nc24)C3=O)cc1` (centres unmarked) [Compound 51, N-(6-(2,6-dimethylimidazo[1,2-a]pyrazin-8-yl)-6-methyl-5-oxo-5,6,7,8-tetrahydroquinolin-2-yl)-2-(4-(ethylsulfonyl)phenyl)acetamide], the IC50 was less than 100 nM.
`CCS(=O)(=O)c1ccc(CC(=O)Nc2ccc3c(n2)CCC(C)(c2cnc(C(C)C)cn2)C3=O)cc1` (centres unmarked) [Compound 60, 2-(4-(ethylsulfonyl)phenyl)-N-(6-(5-isopropylpyrazin-2-yl)-6-methyl-5-oxo-5,6,7,8-tetrahydroquinolin-2-yl)acetamide]: the concentration for half-maximal inhibition (IC50) was in the range of 100 to 500 nM.
For the compound `CCS(=O)(=O)c1ccc(CC(=O)Nc2ccc3c(n2)CCC(C)(c2nccn4c(C(F)(F)F)cnc24)C3=O)cc1` (centres unmarked) [Compound 74, 2-(4-(ethylsulfonyl)phenyl)-N-(6-methyl-5-oxo-6-(3-(trifluoromethyl)-imidazo[1,2-a]pyrazin-8-yl)-5,6,7,8-tetrahydroquinolin-2-yl)acetamide], the IC50 was less than 100 nM.
With `CCS(=O)(=O)c1ccc(CC(=O)Nc2cc(C)c3c(n2)CCC(C)(c2cc(C)c(OC)nn2)C3=O)cc1` (centres unmarked) [Compound 96, 2-(4-(ethylsulfonyl)phenyl)-N-(6-(6-methoxy-5-methylpyridazin-3-yl)-4,6-dimethyl-5-oxo-5,6,7,8-tetrahydroquinolin-2-yl)acetamide], the concentration for half-maximal inhibition (IC50) is 100 to 500 nM.
